# PubChem BioAssay AID1963446 (Molecular Pharmacology Branch, DTP, NCI, 2024)
# Test system: 993429-296-R-J1-PDC complex spheroid growth, percent test/control
# Test: Anticancer human tumor 993429-296-R-J1-PDC patient-derived uterine sarcoma cell line growth inhibition [Asc]
# Conditions: for IC50: curve of first compound; for viability, T/C: stronger effect = lower value
# Experimental: Multicellular complex tumor spheroid response to apoptosis pathway targeting inhibitors Alrizomadlin, Pelcitoclax, and Dasminapant in combination with a variety of drugs and investigational agents in selected tumor cell lines
# The MDM2 inhibitor alrizomadlin, the Bcl-2/Bcl-xL inhibitor pelcitoclax, and the IAPs inhibitor dasminapant were evaluated both individually and in combination with standard of care and investigational anticancer small molecules within a complex spheroid model of solid tumors. . Complex spheroids include a stromal component modeled by human endothelial cells (HUVEC) and fibroblasts modeled by human mesenchymal stem cells (MSCs). The concentration ranges selected for each drug and investigational agent were based upon clinically achievable concentrations if the clinical Cmax of the agent was known.
# Compounds. The drugs and investigational agents: alrizomadlin (APG-115; NSC831270), pelcitoclax (APG-1252; NSC835773), dasminapant (APG-1387;NSC834197), TAK-243 (NSC785004), copanlisib (NSC809693), olaparib (NSC753686), talazoparib (NSC767125), cobimetinib (NSC 768068), eltanexor (KPT-8602, NSC 794443), abemaciclib (NSC 768073), sotorasib (NSC818433), adagrasib (NSC 831453), MRTX-1133 (NSC 836407), Iadademestat (ORY1001, NSC 806812), and RMC-4630 (NSC839698), were obtained from the NCI Developmental Therapeutics Program Chemical Repository. The FDA-approved anticancer drug set is available from the Developmental Therapeutics Program at https://dtp.cancer.gov/organization/dscb/obtaining/available plates.htm. […] The stock solutions were prepared in dimethyl sulfoxide (DMSO, Sigma-Aldrich, St. Louis, MO, cat. D2650) at 800-fold the tested concentration and stored at -70 degrees C prior to their use. All drugs and investigational agents were tested over a range starting from a high concentration at or near the clinical Cmax and decreasing in half-log increments. If the clinical Cmax for an agent had not been determined, the highest concentration tested was 10 microM.
# The patient-derived cancer (PDC) cell lines include five colon adenocarcinomas: 186277-243-T-J2-PDC, 616215-338-R-J1-PDC, 439559-082-T-J2-PDC, 463943-066-T-J2-PDC, and 519858-162-T-J1-PDC; three pancreatic carcinomas: 323965-272-R-J2-PDC, 521955-158-R6-J3-PDC, and 521955-158-R2-J5-PDC; two uterine sarcomas: 327498-152-R-J2-PDC and 993429-296-R-J1-PDC; two rhabdomyosarcomas: 755483-174-R-J1-PDC and 772245-204-R-J1-PDC; two soft tissue sarcomas: 126254-015-R-J1-PDC and 494315-158-R-J1-PDC; two malignant fibrous histiocytomas: 317291-083-R-J1-PDC and 596521-263-R-J1-PDC; two breast carcinomas: 171881-019-R-J1-PDC and 885512-296-R-J2-PDC; and one ovarian carcinoma: 6556581-035-R-J-PDC were obtained from the NCI PDMR, (https://pdmr.cancer.gov). The established cell lines HSSY-2 synovial sarcoma (RRID:CVCL 8719), SYO-1 synovial sarcoma (RRID:CVCL_7146), MPNST malignant peripheral neural sheath tumor were obtained from the Sloan Kettering Institute. The following established cell lines were purchased from the American Type Culture Collection (ATCC, Manassas, VA), Sor the received from the NCI repository:, PANC-1 pancreatic carcinoma (CRL-1469, RRID:CVCL_0480), OVCAR-5 ovarian carcinoma (RRID:CVCL_1628), OVCAR-8 ovarian carcinoma (RRID:CVCL_1629), , MCF-7 breast carcinoma (CRL-12584, RRID:CVCL_0031), MDA-MB-231 breast carcinoma (CRL-12532, RRID:CVCL_0062), NCI-H1876 small cell lung carcinoma (CRL-5902, RRID:CVCL_1503), NCI-H510A small cell lung carcinoma (HTB-184, RRID:CVCL_1565), NCI-H1417 (CRL-5869, RRID:CVCL_1469), and NCI-H196 small cell lung carcinoma (CRL-5823, RRID:CVCL_1509). Dr. Peter Houghton (Greehey Children's Cancer Research Institute, University of Texas Health Science Center, San Antonio, TX) provided Rh-18 rhabdomyosarcoma (RRID:CVCL_1659). Pooled donor human umbilical vein endothelial cells (HUVEC, Lonza, cat. CC-2519) and human mesenchymal stem cells (hMSC, Lonza, cat. PT-2501) were purchased from Lonza (Walkersville, MD).
# Cell Culture. […]
# 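Also: spheroids exposed to compounds for seven days.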
structure (smiles),measurement,setting,value
CNC(C)C(=O)NC1CN(S(=O)(=O)c2cccc(S(=O)(=O)N3CCC4CCC(C(=O)NC(c5ccccc5)c5ccccc5)N4C(=O)C(NC(=O)C(C)NC)C3)c2)CCC2CCC(C(=O)NC(c3ccccc3)c3ccccc3)N2C1=O (stereo not given) + Cc1c(S(C)(=O)=O)c(-c2cc(F)cc(N3CCN(c4ccc(NS(=O)(=O)c5ccc(NC(CCN6CCC(C(=O)OCCCP(=O)(O)O)CC6)CSc6ccccc6)c(S(=O)(=O)C(F)(F)F)c5)cc4)CC3)c2)c(-c2ccc(Cl)cc2)n1C(C)C,IC50,second compound 0.1 µM,542 nM
same,IC50,second compound 0.316 µM,100 nM
same,IC50,second compound 1 µM,< 3.16 nM
same,IC50,second compound 3.16 µM,3.25 nM
same,IC50,second compound 10 µM,901 nM
same,"viability, T/C","second compound 0.1 µM, first compound 0.00316 µM",75.5%
same,"viability, T/C","second compound 0.1 µM, first compound 0.01 µM",60.4%
same,"viability, T/C","second compound 0.1 µM, first compound 0.0316 µM",62.1%
same,"viability, T/C","second compound 0.1 µM, first compound 0.1 µM",53%
same,"viability, T/C","second compound 0.1 µM, first compound 0.316 µM",56%
same,"viability, T/C","second compound 0.1 µM, first compound 1 µM",45.3%
same,"viability, T/C","second compound 0.316 µM, first compound 0.00316 µM",59.3%
same,"viability, T/C","second compound 0.316 µM, first compound 0.01 µM",59.7%
same,"viability, T/C","second compound 0.316 µM, first compound 0.0316 µM",54.3%
same,"viability, T/C","second compound 0.316 µM, first compound 0.1 µM",42%
same,"viability, T/C","second compound 0.316 µM, first compound 0.316 µM",54.6%
same,"viability, T/C","second compound 0.316 µM, first compound 1 µM",41.7%
same,"viability, T/C","second compound 1 µM, first compound 0.00316 µM",48.9%
same,"viability, T/C","second compound 1 µM, first compound 0.01 µM",40.8%
same,"viability, T/C","second compound 1 µM, first compound 0.0316 µM",47.4%
same,"viability, T/C","second compound 1 µM, first compound 0.1 µM",48.9%
same,"viability, T/C","second compound 1 µM, first compound 0.316 µM",41.6%
same,"viability, T/C","second compound 1 µM, first compound 1 µM",42.8%
same,"viability, T/C","second compound 3.16 µM, first compound 0.00316 µM",50.2%
same,"viability, T/C","second compound 3.16 µM, first compound 0.01 µM",39.1%
same,"viability, T/C","second compound 3.16 µM, first compound 0.0316 µM",29.4%
same,"viability, T/C","second compound 3.16 µM, first compound 0.1 µM",30.7%
same,"viability, T/C","second compound 3.16 µM, first compound 0.316 µM",34.5%
same,"viability, T/C","second compound 3.16 µM, first compound 1 µM",24.1%
same,"viability, T/C","second compound 10 µM, first compound 0.00316 µM",85.5%
same,"viability, T/C","second compound 10 µM, first compound 0.01 µM",81.9%
same,"viability, T/C","second compound 10 µM, first compound 0.0316 µM",67.5%
same,"viability, T/C","second compound 10 µM, first compound 0.1 µM",56.8%
same,"viability, T/C","second compound 10 µM, first compound 0.316 µM",45.5%
same,"viability, T/C","second compound 10 µM, first compound 1 µM",53.5%
